# Results from a melting point compilation (Tetko et al.; mined from patent text by program, amines drawn as free bases though some values may be those of a salt).
row,Compound,melting point [°C]
1,COc1cc2c(Nc3ccc(C)c(OC(C)=O)c3)ncnc2cc1OCc1ccncc1,201 to 202
2,O=[N+]([O-])c1ccc(SSc2nccc(O)n2)c(C(Cl)(Cl)Cl)c1,174
3,CC(C(=O)c1ccc(O)cc1)N1CCC(O)(c2ccccc2)CC1 (centres undefined),95 to 97
4,COc1ccccc1[C@H](c1cccc2ccccc12)[C@@](C)(C#N)C(=O)N1CCN(c2cccc(C(F)(F)F)c2)CC1,158 to 162
5,COc1ccccc1N1CCN(CCCNC(=O)c2cccc3c(=O)c(C)c(C4CC4)oc23)CC1,139 to 141
6,CCCCN(CCCC)CCCCCOc1ccc(S(=O)(=O)c2c(CC)cn3ccccc23)cc1,89 to 90
7,COC(=N)N1CCC(c2n[nH]c3ccccc23)CC1,153 to 155
8,CCN1c2ccccc2N(C(=O)CN(C)C)c2ccccc2S1(=O)=O,115 to 116
9,COC(=O)C(=O)c1ccc(OCCCc2ccc3ccccc3c2)cc1,97 to 99
10,CCCCc1nc2ccccc2n1Cc1ccc(C(=O)O)cc1,229 to 231
11,O=C(Cn1ccnc1)c1ccccc1O,195 to 200
12,Nc1ccc([N+](=O)[O-])cc1S(N)(=O)=O,202 to 204
13,COc1cc(OC)c2c(=O)cc(-c3ccc(C(F)(F)F)cc3)oc2c1C1CCN(C)C1CO (centres undefined),114 to 115
14,CCOC(=O)C(C)(OC)C(=O)Nc1ccc(Br)cc1C (centres undefined),99 to 103
15,CN1C(=O)[C@H](NC(=O)Nc2ccc3c(c2)CCC3)N=C(c2ccccc2)c2ccccc21,156 to 158
16,CC(=O)Oc1c(OC(C)=O)c([C@H]2CC[C@H](c3ccc(Cl)cc3)CC2)c(OC(C)=O)c2ccccc12,177 to 179
17,c1cc(Nc2csc3cnccc23)ccn1,236 to 238
18,COc1c(C)c(CO)c(OC)c2ccccc12,116 to 117
19,COC(=O)c1cc2cc(OC)ccc2cc1/N=C/N(C)C,160 to 162
20,CC(C)(CO)C[C@H]1COC(C)(C)N1C(=O)OC(C)(C)C,45 to 46
21,CN(C)c1ccc(NC(=O)N(CC2CCC(CN(C(=O)Nc3ccc(N(C)C)cc3)C3C4CC5CC(C4)CC3C5)CC2)C2C3CC4CC(C3)CC2C4)cc1 (centres undefined),182 to 185
22,COC(=O)CCSCC(=O)c1cc2c(cc1Cl)NC(=O)C2,75 to 77
23,Ic1ccc(N2CCCC2)cc1,99.7 to 99.8
24,CCOC(=O)C1(C(=O)O)Cc2cc(OC)c(OC)cc2C1,146 to 148

row,Compound,melting point [°C]
1,CS(=O)(=O)Nc1cc2occc(=O)c2cc1O,> 250
2,FC(F)(F)c1ccccc1-c1ccnc2ncnn12,149 to 151
3,O=C(N[C@@H]1C(=O)N[C@@H]1CO)OCc1ccccc1,98 to 100
4,CN(C)C1CCN(C(=O)N2CCC(c3[nH]nc4c3C(=O)c3c(NC(=O)NN5CCOCC5)cccc3-4)CC2)CC1,172 to 174
5,COc1ccc2c(c1)c(C(=O)OCc1ccccc1)nn2Cc1ccccc1,107 to 109
6,CCCCc1oc2ccccc2c1C(=O)c1ccc(N(CCN(CC)CC)S(=O)(=O)c2cccnc2)cc1,141 to 146
7,CC(=O)Oc1ccc(C(=O)NOCc2ccccc2)cc1,120 to 122
8,O=c1c2ccccc2nnn1CCCCl,69
9,Nc1cnn(CCO)c1NCCO,140 to 142
10,Cc1oncc1C(=O)N1CCCCC1,40 to 43
11,FC(F)(F)c1cccc(-c2ncn(CC3CC3)c2-c2ccncc2)c1,106
12,CCC(C#N)Oc1cccc([N+](=O)[O-])c1Cl (centres undefined),69 to 71
13,CCOC(=O)COc1ccc2c(-c3ccc(Cl)cc3)noc2c1,97
14,CC1(C)Cc2c(N)c(Cl)cc(C(=O)NC3CCN(CCCNc4nc(O)c5ccccc5n4)CC3)c2O1,160
15,COc1ccc(-c2c(C#N)c(CNS(=O)(=O)c3c(F)cccc3F)nn2-c2ccc(Cl)cc2Cl)cc1,170
16,Cc1cncc(C(=O)OC(C)c2nc3c(c(=O)n(C)c(=O)n3C)n2C)c1 (centres undefined),110
17,CNC(=O)c1cc2ccccc2c(-c2ccc(I)cc2)n1,163 to 164
18,CCCN1CCC(=O)C(C(c2ccccc2)c2ccccc2)C1 (centres undefined),72 to 76
19,CN(C)C=C(C#N)C#N,81 to 82
20,BrCc1ccc2ocnc2c1,90 to 93
21,CC(=O)c1cc([N+](=O)[O-])c2c(c1)C(C)(C)CCO2,117 to 119
22,O=C(/C=C/c1ccccc1)NCCC1CCN(Cc2ccccc2)CC1,125 to 127
23,CN(C)CCOC(=O)c1ccc(CCN2CC=C(c3c[nH]c(-c4ccc(F)cc4)c3-c3ccncc3)CC2)cc1,178 to 181
24,Cc1cccc(C(O)COc2ccc(CC3SC(=O)NC3=O)cc2)n1 (centres undefined),154 to 155

# Further lines, results first:
row,melting point [°C],Compound
1,203 to 205,O=c1[nH]ccc2nc(C(F)(F)F)nn12
2,190 to 192,Cc1cn(-c2ccc(N3C[C@H](CO)OC3=O)cc2F)nn1
3,156 to 158,O=C(CCC(=O)c1ccc(F)cc1)Nc1ccc(-n2nc(C(F)(F)F)cc2C(F)(F)F)cc1
4,290 to 293,O=c1[nH]c(=O)n2c3c(cccc13)S(=O)(=O)c1ccc(C(F)(F)F)cc1-2
5,220,N#CCN1CCC(=C2c3ccccc3CCn3ccnc32)CC1
6,150 to 151,CCOC(=O)C(=O)Nc1ccc2ccccc2c1NC(=O)C(=O)OCC
7,59 to 60,O=C1N(Cc2ccc(C(F)(F)F)o2)c2ccccc2C12COc1cc3c(cc12)OC(F)(F)O3 (centres undefined)
8,192 to 193,CCOC(=O)N1CC2CCN(c3c(F)cc4c(=O)c(C(=O)O)cn(C5CC5)c4c3F)C2C1 (centres undefined)
9,116 to 118,COc1ccc2c(c1OC)SCCC2C#N (centres undefined)
10,280 to 282,CC(C)c1cc2c(=O)n3cc(C(N)=O)ccc3nc2s1
11,136,Brc1ccc(C2(Cn3cncn3)OCCO2)cc1
12,201 to 203,CNC(=O)c1ccc(C)c(-n2c(C)cc(OCc3ccccc3CNC(=O)Nc3cc(C(C)(C)C)nn3-c3ccc(O)c(Cl)c3)c(Cl)c2=O)c1
13,181 to 183,COc1ccc(N2CCN(c3c(C)c(C)c4c(c3C)C(c3ccc(Cl)cc3)C(C)(C)O4)CC2)cc1 (centres undefined)
14,248 to 250,O=C1NN(C(=O)c2cc3ccccc3[nH]2)C(c2ccccc2)C1c1ccccc1 (centres undefined)
15,51 to 53,O=C(Cl)Oc1ccc(Cl)c(Cl)c1
16,146 to 148,COC(=O)C1CC(=O)NC(Cc2ccccc2)C1=O (centres undefined)
17,100 to 102,CCCCc1c(CO)ccc2c(OC)cccc12
18,145 to 147,CS(=O)(=O)c1ccc(-c2cccn2-c2ccc(F)cc2)cc1
19,81 to 82.4,O=C(Cc1ccccc1)c1ccc(OCC2CO2)cc1 (centres undefined)

row,melting point [°C],Compound
1,> 260,CNS(=O)(=O)c1ccc(NN=C2C(=O)Nc3ccc4ncsc4c32)cc1
2,82 to 84,COc1ccc(CCOCC(=O)O)cc1
3,136,CC(=O)C1C(=O)CC(CCS(=O)(=O)c2ccc(C(F)(F)F)cc2)CC1=O (centres undefined)
4,> 300,CCn1ncc2c3[nH]c4cc(C)nn4c(=O)c3cnc21
5,212 to 214,CN1CCN(c2cc3c(Cl)cccc3c(=O)[nH]2)CC1CO (centres undefined)
6,187 to 188,CCCCCCCCCCCCNC(=O)Nc1sc(C(=O)O)c(C)c1C(=O)OC(C)(C)C
7,247 to 250,O=C1N(Cc2ccc(=O)[nH]c2)c2ccccc2C12COc1cc3c(cc12)OCO3 (centres undefined)
8,93 to 95,CCN1C=C(N)N=C(C2CC2)c2ccccc21
9,178 to 181,c1cnc2c(c1)-c1sccc1C2Cc1ccncc1 (centres undefined)
10,144,COC(=O)c1ccc(OCCCC#N)c(Cl)c1
11,204,COc1ccc(-c2c[nH]c(S)n2)cc1
12,57,COc1cc(I)ccc1-c1ccccc1
13,58 to 59,Cc1ccsc1-c1cncc(Br)c1
14,155 to 158,CCOC(=O)c1c(N)sc(N)c1C(=O)OCC
15,35,CC(=O)[Si](C)(C(C)(C)C)C(C)(C)C
16,166 to 168,O=C1N(CCCCN2CCN(c3n[nH]c4ccccc34)CC2)CSC12CCCC2
17,244 to 246,CCCc1cc(=O)oc2c(C(=O)CC)c(O)cc(O)c12
18,199 to 200,COc1ccc2c(n1)C1(CO2)C(=O)Nc2ccccc21 (centres undefined)
19,215 to 216,COCC1CN(c2cc3c(cc2F)c(=O)c(C(=O)O)cn3C2CC2)CCN1 (centres undefined)

row,melting point [°C],Compound
1,114 to 116,CCCOc1ccc(F)cc1C(N)=O
2,157 to 159,COc1ccc2[nH]c(C(=O)C3(c4ccc(Cl)cc4)CCCC3)cc2c1
3,132 to 134,CC(C)CC1(C(CCNC(=O)c2ccc(F)c(F)c2)C(=O)NO)CCN(CCc2ccccc2)C1=O (centres undefined)
4,139 to 142,CCCOCCOc1ccc(-c2ccc3c(c2)C=C(C(=O)O)CCN3Cc2ccccc2)cc1
5,> 300,O=c1[nH]c2ccccc2n2ccnc12
6,364 to 366,O=C(CC(=O)C(F)(F)F)Nc1cc(-c2ccncc2)n[nH]1
7,128 to 129,CCCCCCCCCCCCCCCCCC(=O)Oc1nc2c(N)ncnc2n1Cc1ccccc1
8,249 to 251,CCCOc1ccc(S(=O)(=O)N2CCN(C(C)=O)CC2)cc1-c1nc2cc(N)c([N+](=O)[O-])cc2c(=O)[nH]1
9,119,COc1ccc(C(=O)c2cc([N+](=O)[O-])ccc2N2CCC(C)CC2)cc1
10,35 to 41,Fc1ccc(C=C(c2ccccc2)C(F)(F)F)cc1
11,63,CC(C)(C)c1ccc(OS(C)(=O)=O)c(C(C)(C)C)c1
12,108 to 109,Cc1cnnc2c1C(=O)CC(c1ccccc1Cl)C2 (centres undefined)
13,168 to 170,CCOC(=O)NNc1ccc(-c2cccc(C(F)(F)F)c2)nn1
14,> 260,COc1ccc(-n2c(=O)[nH]c3c(C(N)=O)nc(-c4cccc(O)c4)nc32)c(F)c1
15,252 to 254,CNC(=O)c1cccc(CNc2n[nH]c3ncnc(Nc4cccc(Cl)c4)c23)c1
16,> 250,N#Cc1cnc2cc(O)ccc2c1Nc1ccc2cn[nH]c2c1
17,184,Nc1ccc(OCc2ccccc2)cc1N
18,198,COc1c(C2CCN(CCCCNC(=O)c3ccc(-c4ccc(Cl)cc4)c(OCC(N)=O)c3)CC2)ccc2c1CCCC2
